Experiment [1] deals with T1, CXCR1 (Homo sapiens, UniProt P25024).
T1 sequence (P25024 1-350): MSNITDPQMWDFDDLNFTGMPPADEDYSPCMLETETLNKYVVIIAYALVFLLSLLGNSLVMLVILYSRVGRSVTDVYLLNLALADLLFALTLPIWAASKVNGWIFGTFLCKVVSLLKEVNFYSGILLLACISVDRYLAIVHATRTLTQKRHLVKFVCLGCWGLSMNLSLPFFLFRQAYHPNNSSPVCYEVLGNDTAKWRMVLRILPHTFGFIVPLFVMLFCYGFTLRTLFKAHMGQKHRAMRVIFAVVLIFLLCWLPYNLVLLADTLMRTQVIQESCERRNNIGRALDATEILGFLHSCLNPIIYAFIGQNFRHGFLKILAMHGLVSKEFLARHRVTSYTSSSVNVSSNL
Briefly: Ki calculated from IC50 by the Cheng-Prusoff equation. The class given is binding. Conditions: read-out: KiCXCR1 (nmol/L).

Experiment [2] deals with T2, CXCR2 (Homo sapiens, UniProt P25025).
T2 sequence (P25025 1-360): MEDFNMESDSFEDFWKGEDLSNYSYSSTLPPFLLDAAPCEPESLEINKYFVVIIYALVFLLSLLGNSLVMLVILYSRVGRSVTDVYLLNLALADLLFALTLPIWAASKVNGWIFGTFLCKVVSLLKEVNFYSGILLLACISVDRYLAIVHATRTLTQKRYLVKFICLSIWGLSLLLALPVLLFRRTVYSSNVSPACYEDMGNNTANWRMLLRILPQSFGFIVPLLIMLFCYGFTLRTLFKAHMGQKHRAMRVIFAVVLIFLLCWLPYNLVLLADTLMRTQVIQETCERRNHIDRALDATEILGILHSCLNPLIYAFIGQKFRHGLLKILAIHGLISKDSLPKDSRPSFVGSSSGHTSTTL
The experiment is described as above. As to conditions: read-out: KiCXCR2 (nmol/L). The class given is binding.

Our source for the Ki values is article PMC4232212 (Clinical cancer research : an official journal of the …, 2009).

Take SCH-479833: the Ki in experiment [1] is 7 nmol/L; in experiment [2], 0.17 nmol/L.
